Experimental data reported in patent US12492173B2, “Herbicidal substituted N-tetrazolyl aryl carboxamides” (Bayer Aktiengesellschaft, priority 2019, dated 2025).

Assays:
Type in all cases: in vivo
Lolium multiflorum = assay: Pre-emergence herbicidal action, LOLMU; settings: dosage 320 g/ha, scored visually after 3 weeks vs untreated controls (100% = plants have died)
Excerpt: (§1) 1. Pre-Emergence Herbicidal Action Against Harmful Plants Seeds of monocotyledonous and dicotyledonous weed plants and crop plants are laid out in sandy loam soil in wood-fiber pots and covered with soil. The compounds of the invention, formulated in the form of wettable powders (WP) or as emulsion concentrates (EC), are then applied to the surface of the covering soil in the form of an aqueous suspension or emulsion at a water application rate equating to 600 to 800 l/ha, with addition of 0.2% wetting agent. After the treatment, the pots are placed in a greenhouse and kept under good growth conditions for the trial plants. The damage to the test plants is scored visually after a test period of 3 weeks by comparison with untreated controls (herbicidal activity in percent (%): 100% activity=the plants have died, 0% activity=like control plants). […] The tables below illustrate, in an exemplary manner, the […] herbicidal action of the compounds according to the invention, the herbicidal activity being stated in percent. [table] In the experiments that follow, herbicidal action of numerous inventive compounds and the known compounds that are structurally closest from D1 (WO 2012/028579 A1) and D2 (WO 2018/202535 A1) were compared under the above-specified conditions by the pre-emergence and post-emergence method. The example numbers given in the tables relate to the compounds disclosed in the respective documents. In addition to the compounds disclosed in D1 and D2, the following compounds V-1 to V-14 that are encompassed by D1 or D2 but are not compounds specified therein were used in the comparative experiments: • V-1: 2-(methylsulfanyl)-3-(methylsulfinyl)-N-(1-methyl-1H-tetrazol-5-yl)-4-(trifluoromethyl)benzamide • V-2: 2-(methylsulfanyl)-3-(methylsulfonyl)-N-(1-methyl-1H-tetrazol-5-yl)-4-(trifluoromethyl)benzamide • V-3: 2,3-bis(ethylsulfanyl)-N-(1-methyl-1H-tetrazol-5-yl)-4-(trifluoromethyl)benzamide • V-4: 2-chloro-3-(ethylsulfanyl)-N-(1-methyl-1H-tetrazol-5-yl)-4-(trifluoromethyl)benzamide • V-5: 2-chloro-4-iodo-3-(methylsulfanyl)-N-(1-methyl-1H-tetrazol-5-yl)benzamide • V-6: 2-chloro-4-iodo-3-(methylsulfinyl)-N-(1-methyl-1H-tetrazol-5-yl)benzamide • V-7: 2-chloro-4-iodo-3-(methylsulfonyl)-N-(1-methyl-1H-tetrazol-5-yl)benzamide • V-8: 2-bromo-3-(methylsulfanyl)-N-(1-methyl-1H-tetrazol-5-yl)-4-(trifluoromethyl)benzamide • V-9: 2-bromo-3-(methylsulfinyl)-N-(1-methyl-1H-tetrazol-5-yl)-4-(trifluoromethyl)benzamide • V-10: 2-bromo-3-(methylsulfonyl)-N-(1-methyl-1H-tetrazol-5-yl)-4-(trifluoromethyl)benzamide • V-11: 2-bromo-3-(ethylsulfanyl)-N-(1-methyl-1H-tetrazol-5-yl)-4-(trifluoromethyl)benzamide • V-12: 2-bromo-3-(ethylsulfinyl)-N-(1-methyl-1H-tetrazol-5-yl)-4-(trifluoromethyl)benzamide • V-13: 2-bromo-3-(ethylsulfonyl)-N-(1-methyl-1-1H-tetrazol-5-yl)-4-(trifluoromethyl)benzamide • V-14: 2-cyclopropyl-3-(ethylsulfanyl)-N-(1-methyl-1H-tetrazol-5-yl)-4-(trifluoromethyl)benzamide Herbicidal Pre-Emergence Action: […]

Amaranthus retroflexus = assay: Pre-emergence herbicidal action, AMARE; design: key to Herbicidal action against AMARE: % activity: 100 = plants have died, 0 = like control plants; settings: for herbicidal activity AMARE: dosage 320 g/ha, scored visually after 3 weeks vs untreated controls (100% = plants have died); for Herbicidal action against AMARE: comparative experiment, 80 g of a.i./ha
Method in brief: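 Seeds were covered with sandy loam soil, then received a pre-emergence surface spray of the WP- or EC-formulated compound. After 3 weeks under good greenhouse growth conditions, damage was scored visually in percent.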

Polygonum convolvulus = assay: Post-emergence herbicidal action, POLCO; settings: for Herbicidal action against POLCO: comparative experiment
Method in brief: (§2)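 Greenhouse post-emergence test: weeds sown in sandy loam were sprayed once at one leaf, 2 to 3 weeks from sowing, with aqueous WP or EC preparations carrying 0.2% wetting agent. Effect is scored visually after about 3 weeks.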

Stellaria media = assay: Post-emergence herbicidal action, STEME; design: key: % herbicidal action vs untreated; 100 = plants died, 0 = like control; settings: for Herbicidal action against STEME: comparative experiment
Method in brief: as §2

Matricaria inodora = assay: Post-emergence herbicidal action, MATIN; design: key: % herbicidal action vs untreated; 100 = plants died, 0 = like control; settings: for Herbicidal action against MATIN: comparative experiment
Method in brief: as §2

Hordeum murinum = assay: Pre-emergence herbicidal action, HORMU; settings: dosage 320 g/ha, scored visually after 3 weeks vs untreated controls (100% = plants have died)
Excerpt: as §1

[1] = post-emergence, 20 g of a.i./ha

SMILES	herbicidal activity LOLMU (Lolium multiflorum)	herbicidal activity AMARE (Amaranthus retroflexus)	herbicidal action POLCO (Polygonum convolvulus; post-emergence, dosage 80 g/ha)	herbicidal action STEME (Stellaria media; post-emergence, dosage 80 g/ha)	herbicidal action MATIN (Matricaria inodora; post-emergence, dosage 80 g/ha)	herbicidal activity HORMU (Hordeum murinum)	herbicidal action POLCO (Polygonum convolvulus; Dosage 80 g/ha)	herbicidal action STEME (Stellaria media; Dosage 80 g/ha)	herbicidal action MATIN (Matricaria inodora; Dosage 80 g/ha)	Herbicidal action against AMARE (Amaranthus retroflexus)	Herbicidal action against POLCO (Polygonum convolvulus; [1])	Herbicidal action against STEME (Stellaria media; [1])	Herbicidal action against MATIN (Matricaria inodora; [1])	Herbicidal action against POLCO (Polygonum convolvulus; post-emergence, 5 g of a.i./ha)	Herbicidal action against STEME (Stellaria media; post-emergence, 5 g of a.i./ha)	Herbicidal action against MATIN (Matricaria inodora; post-emergence, 5 g of a.i./ha)
CCSCc1c(C(F)F)ccc(C(=O)Nc2nnnn2CC)c1Cl [Example 2-323]	100%	100%	100%	100%	90%											
CCn1nnnc1NC(=O)c1ccc(C(F)(F)F)c(C[S+](C)[O-])c1Cl (centres unmarked) [Example 2-297]	90%	100%	90%	100%	100%											
CCn1nnnc1NC(=O)c1ccc(C(F)F)c(CSC)c1SC [Example 2-170]		100%				80%	90	100	100							
CCS(=O)(=O)Cc1c(C(F)(F)F)ccc(C(=O)Nc2nnnn2C)c1Br [Example 1-385]	100%	100%	90%	100%	90%					100	70	100	90			
CCCn1nnnc1NC(=O)c1ccc(C(F)(F)F)c(C[S+]([O-])CC)c1Br (centres unmarked) [Example 3-384]	90%	100%					90	100	100							
CCCn1nnnc1NC(=O)c1ccc(C(F)F)c(CS(C)(=O)=O)c1SC [Example 3-172]		100%				80%	80	100	90							
CCSCc1c(C(F)(F)F)ccc(C(=O)Nc2nnnn2C)c1Br [Example 1-383]	100%	100%	90%	100%	90%					100		100				
CCn1nnnc1NC(=O)c1ccc(C(F)F)c(CS(=O)(=O)CC)c1Cl [Example 2-325]	100%	100%					90	100	80							
CCSCc1c(C(F)(F)F)ccc(C(=O)Nc2nnnn2C)c1Cl [Example 1-299]	100%	100%	80%	100%	90%									60	100	80
CCCn1nnnc1NC(=O)c1ccc(C(F)(F)F)c(CS(C)(=O)=O)c1Cl [Example 3-298]	90%	100%					90	100	100							
CCCn1nnnc1NC(=O)c1ccc(C(F)F)c(C[S+](C)[O-])c1SC (centres unmarked) [Example 3-171]		100%				90%	90	100	90							
CCn1nnnc1NC(=O)c1ccc(C(F)(F)F)c(C[S+](C)[O-])c1SC (centres unmarked) [Example 2-162]		100%				90%	90	100	100							
CSCc1c(C(F)(F)F)ccc(C(=O)Nc2nnnn2C)c1C [Example 1-83]	100%	100%	90%	100%	100%											
